Common to all, as to type: cell-based, human
In assay [1] the test system is A549 cells. As to the kind of experiment: Real-time measurements of cell adherence (impedance). The following applies: 50 μM CDDP alone or with 5 mM PN. The procedure: 5×10^3 A549 cells were seeded in standard culture conditions on 96-well plates coated with gold microelectrodes (E-plates™, Roche) and let adapt and recover growth for 40 h. Thereafter, cells were treated with 50 μM CDDP alone or in association with 5 mM PN for additional 48 h. Since plating, the adherence of cells to the plate was monitored every 15 min (as a function of plate impedance) by means of an xCELLigence™ Real-Time Cell Analyzer (RTCA, from Roche).
Cell adherence was measured in 3 parallel wells for each experimental condition.
Results are reported as mean cell index (CI) values, which constitute an indication of electrode impedance, ±SEM.

Assay [2] has as its system CDDP-GG DNA adducts. As to the kind of experiment: Immunofluorescence microscopy for the detection of CDDP-GG DNA adducts. To be noted: A549 cells, 25 μM CDDP alone or combined with PN. The procedure:
Immunofluorescence staining and measurement of specific DNA platination products was performed essentially as previously described {Dzagnidze, 2007; Liedert, 2006}, with minor modifications. Briefly, cells were spotted onto ImmunoSelect adhesion slides (Squarix GmbH, Marl, Germany), fixed overnight in ice-cold methanol, and subjected to proteolytic digestion with 60 μg/mL pepsin (100 μL per spot, 10 min, 37° C., in a moist chamber) and 40 μg/mL proteinase K (100 μL per spot, 10 min, 37° C., in a moist chamber). Upon blockage of unspecific binding sites with 5% (w/v) non-fat powdered milk in PBS, slides were incubated with a rat primary antibody that specifically recognizes CDDP-GG DNA adducts (RC-18) (at 37° C. for 2 h or at 4° C. overnight). […] Images were acquired on an Axioplan fluorescence microscope (Carl Zeiss GmbH, Göttingen, Germany) coupled to a C4880 CCD camera (Hamamatsu Photonics, Herrsching, Germany). For the detection of CDDP-GG DNA adducts by immunofluorescence microscopy, fluorescence signals were measured by quantitative digital image analysis with the ACAS 6.0 Cytometry Analysis System (ACAS II, Asbach, Germany). The levels of adducts in each sample were calculated as arbitrary fluorescence units (AFUs), upon normalization of integrated antibody-derived fluorescence from 200 nuclei/sample to the corresponding DNA content. […]

Assay [3] concerns A549 cells. As to the kind of experiment: Cytofluorometric assessment of cell death (DiOC6(3)/PI co-staining).
Assay [4] has as its system A549 cells. As to the kind of experiment: Cell cycle distribution (PI staining, cytofluorometry). To be noted: 10 μM CDDP alone or with PN and/or NAC. The procedure: To measure apoptosis-related parameters, living cells were labeled for 30 min at +37° C. with 40 nM 3,3′dihexyloxalocarbocyanine iodide (DiOC6(3), from Molecular Probes-Invitrogen, Eugene, USA), which quantifies the mitochondrial transmembrane potential (Δψm), plus 1 μg/mL propidium iodide (PI), which only accumulates in cells with ruptured plasma membrane {Galluzzi, 2009; Galluzzi, 2008; Galluzzi, 2007}. To assess cell cycle distribution, cells were collected, fixed by gentle vortexing in ice-cold 80% (v/v) ethanol (Carlo Erba Reagents, Milano, Italy) and stained with 50 μg/mL PI in 0.1% (w/v) D-glucose in PBS supplemented with 1 μg/mL (w/v) RNAse A {Mondragon, 2009; Mouhamad, 2007}. All cytofluorometric determinations were carried out a FACSCalibur or a FACScan cytofluorometer (BD Biosciences, San Jose, USA) equipped with a 70 μm nozzle.
First line statistical analysis of cytofluorometric results was performed by using the CellQuest™ software (BD Biosciences), by gating on the events characterized by normal forward scatter and side scatter parameters. Apoptosis- and cell cycle-related data were further analyzed with Microsoft Excel (Microsoft Co., Redmond, USA) and statistical significance was assessed by means of two-tailed Student's t test (p<0.05).

For `Cc1ncc(CO)c(CO)c1O` [PN, pyridoxine], the “CDDP-induced cell death measured as impedance caused by attached, viable cells” value in assay [1] was “exacerbated CDDP-induced cell death”. Further, in assay [2], the CDDP-DNA adducts result was “significantly increased CDDP-DNA adducts”. Further, the “CDDP-induced cell death upon acute addition of the vitamer (DiOC6(3)/PI co-staining)” value in assay [3] (A549 cells, 25 μM CDDP, co-treated for 48 h) is reported as “exacerbated CDDP-induced cell death”. Besides, the “effects of PN on CDDP-induced cell death upon PDXK depletion” value in assay [3] (siPDXK-transfected A549 cells, CDDP) is on record as “lost upon PDXK depletion”. Moreover, the “cell cycle arrest induced by CDDP” value in assay [4] was “not affected by the presence of PN”.

(Values after patent US20130281313A1, “PROGNOSTIC AND/OR PREDICTIVE BIOMARKERS AND BIOLOGICAL APPLICATIONS THEREOF” (INSTITUT GUSTAVE ROUSSY, priority 2010, published 2013).)
